Laboratory results reported in patent publication US12533426B2, “Ultrafine nanoparticles comprising a functionalized polyorganosiloxane matrix and including metal complexes; method for obtaining same and uses thereof in medical imaging and/or therapy” (NANOH, priority 2010, dated 2026).

Assay: Relaxometry of the particles (Bruker Minispec MQ60 NMR analyser, 1.4 T)
Assay type: physicochemical
Details: at 50 MHz; gadolinium quantities measured by ICP
Experimental: The relaxivity r1 considered here is a relaxivity per M^n+ ion (for example gadolinium). r1 is found from the following formula: 1/T1=[1/T1]water+r1[M^n+] […]
Moreover, the relaxivity of the particles from Example 15 was measured by relaxometry, the actual quantities of gadolinium being measured by ICP, on a Varian 710-ES instrument.

## O=C([O-])CN1CCN(CC(=O)[O-])CCN(CC(=O)[O-])CCN(CC(=O)[O-])CC1.[Gd+3] [Gd-DOTA]
  relaxivity r1 (of the gadolinium species): 3.8 s^−1 mM^−1 (of gadolinium)^−1.s^−1
